Data reported in the NIST ThermoML archive (doi:10.1021/je400529k).
± gives the expanded uncertainty stated by the source.

Assay: xn = mol fraction of the nth substance listed
Settings: 101 kPa, Liquid; for viscosity: Capillary tube (Ostwald / Ubbelohde) method; for mass density: Vibrating tube method

C1C[C@@H]2[C@H]3CC[C@H](C3)[C@@H]2C1 [exo-tetrahydrodicyclopentadiene] + C1CCCCC1
viscosity (303.15 K, x1 = 0.0998): 0.948 ± 0.01 mPa·s
viscosity (303.15 K, x1 = 0.2006): 1.08 ± 0.01 mPa·s
viscosity (303.15 K, x1 = 0.3003): 1.212 ± 0.011 mPa·s
viscosity (303.15 K, x1 = 0.3996): 1.351 ± 0.011 mPa·s
viscosity (303.15 K, x1 = 0.4987): 1.5 ± 0.012 mPa·s
viscosity (303.15 K, x1 = 0.6005): 1.668 ± 0.012 mPa·s
viscosity (303.15 K, x1 = 0.7002): 1.846 ± 0.013 mPa·s
viscosity (303.15 K, x1 = 0.8008): 2.037 ± 0.014 mPa·s
viscosity (303.15 K, x1 = 0.9): 2.248 ± 0.016 mPa·s
viscosity (303.15 K, x1 = 1): 2.467 ± 0.017 mPa·s
mass density (303.15 K, x1 = 0.0998): 790.27 ± 0.15 kg/m3
mass density (303.15 K, x1 = 0.2006): 809.99 ± 0.15 kg/m3
mass density (303.15 K, x1 = 0.3003): 828.19 ± 0.15 kg/m3
mass density (303.15 K, x1 = 0.3996): 845.07 ± 0.14 kg/m3
mass density (303.15 K, x1 = 0.4987): 860.86 ± 0.14 kg/m3
mass density (303.15 K, x1 = 0.6005): 876.06 ± 0.14 kg/m3
mass density (303.15 K, x1 = 0.7002): 890.08 ± 0.14 kg/m3
mass density (303.15 K, x1 = 0.8008): 903.43 ± 0.14 kg/m3
mass density (303.15 K, x1 = 0.9): 915.95 ± 0.15 kg/m3
mass density (303.15 K, x1 = 1): 927.94 ± 0.15 kg/m3
viscosity (308.15 K, x1 = 0.0998): 0.874 ± 0.009 mPa·s
viscosity (308.15 K, x1 = 0.2006): 0.993 ± 0.01 mPa·s
viscosity (308.15 K, x1 = 0.3003): 1.113 ± 0.01 mPa·s
viscosity (308.15 K, x1 = 0.3996): 1.239 ± 0.011 mPa·s
viscosity (308.15 K, x1 = 0.4987): 1.375 ± 0.011 mPa·s
viscosity (308.15 K, x1 = 0.6005): 1.528 ± 0.012 mPa·s
viscosity (308.15 K, x1 = 0.7002): 1.691 ± 0.013 mPa·s
viscosity (308.15 K, x1 = 0.8008): 1.866 ± 0.014 mPa·s
viscosity (308.15 K, x1 = 0.9): 2.056 ± 0.015 mPa·s
viscosity (308.15 K, x1 = 1): 2.255 ± 0.016 mPa·s
mass density (308.15 K, x1 = 0.0998): 785.6 ± 0.15 kg/m3
mass density (308.15 K, x1 = 0.2006): 805.41 ± 0.15 kg/m3
mass density (308.15 K, x1 = 0.3003): 823.69 ± 0.15 kg/m3
mass density (308.15 K, x1 = 0.3996): 840.68 ± 0.14 kg/m3
mass density (308.15 K, x1 = 0.4987): 856.56 ± 0.14 kg/m3
mass density (308.15 K, x1 = 0.6005): 871.85 ± 0.14 kg/m3
mass density (308.15 K, x1 = 0.7002): 885.97 ± 0.14 kg/m3
mass density (308.15 K, x1 = 0.8008): 899.4 ± 0.15 kg/m3
mass density (308.15 K, x1 = 0.9): 911.98 ± 0.15 kg/m3
mass density (308.15 K, x1 = 1): 924.02 ± 0.15 kg/m3
viscosity (313.15 K, x1 = 0.0998): 0.808 ± 0.009 mPa·s
viscosity (313.15 K, x1 = 0.2006): 0.917 ± 0.01 mPa·s
viscosity (313.15 K, x1 = 0.3003): 1.026 ± 0.01 mPa·s
viscosity (313.15 K, x1 = 0.3996): 1.141 ± 0.01 mPa·s
viscosity (313.15 K, x1 = 0.4987): 1.267 ± 0.011 mPa·s
viscosity (313.15 K, x1 = 0.6005): 1.407 ± 0.011 mPa·s
viscosity (313.15 K, x1 = 0.7002): 1.555 ± 0.012 mPa·s
viscosity (313.15 K, x1 = 0.8008): 1.715 ± 0.013 mPa·s
viscosity (313.15 K, x1 = 0.9): 1.888 ± 0.014 mPa·s
viscosity (313.15 K, x1 = 1): 2.069 ± 0.015 mPa·s
mass density (313.15 K, x1 = 0.0998): 780.9 ± 0.16 kg/m3
mass density (313.15 K, x1 = 0.2006): 800.82 ± 0.15 kg/m3
mass density (313.15 K, x1 = 0.3003): 819.19 ± 0.15 kg/m3
mass density (313.15 K, x1 = 0.3996): 836.28 ± 0.15 kg/m3
mass density (313.15 K, x1 = 0.4987): 852.26 ± 0.14 kg/m3
mass density (313.15 K, x1 = 0.6005): 867.63 ± 0.14 kg/m3
mass density (313.15 K, x1 = 0.7002): 881.85 ± 0.14 kg/m3
mass density (313.15 K, x1 = 0.8008): 895.35 ± 0.15 kg/m3
mass density (313.15 K, x1 = 0.9): 907.1 ± 0.15 kg/m3
mass density (313.15 K, x1 = 1): 920.11 ± 0.15 kg/m3
viscosity (318.15 K, x1 = 0.0998): 0.751 ± 0.009 mPa·s
viscosity (318.15 K, x1 = 0.2006): 0.848 ± 0.009 mPa·s
viscosity (318.15 K, x1 = 0.3003): 0.949 ± 0.01 mPa·s
viscosity (318.15 K, x1 = 0.3996): 1.055 ± 0.01 mPa·s
viscosity (318.15 K, x1 = 0.4987): 1.169 ± 0.011 mPa·s
viscosity (318.15 K, x1 = 0.6005): 1.298 ± 0.011 mPa·s
viscosity (318.15 K, x1 = 0.7002): 1.435 ± 0.012 mPa·s
viscosity (318.15 K, x1 = 0.8008): 1.581 ± 0.012 mPa·s
viscosity (318.15 K, x1 = 0.9): 1.741 ± 0.013 mPa·s
viscosity (318.15 K, x1 = 1): 1.907 ± 0.014 mPa·s
